Experimental data taken from US20250099405A1, “COMPOSITIONS, METHODS, AND DEVELOPMENT OF ARID4B INHIBITORS” (University of Kentucky Research Foundation, priority 2022, published 2025).

How the values were obtained:
[1] = biological target: T1, ARID4B binding to H3K4me3 (Homo sapiens, UniProt Q4LE39); test: Histone peptide binding assay; conditions: His-ARID4B pre-incubated with compound
T1 construct: His; made in house; host or cells: Sf9
T1 sequence (Q4LE39 1-1312): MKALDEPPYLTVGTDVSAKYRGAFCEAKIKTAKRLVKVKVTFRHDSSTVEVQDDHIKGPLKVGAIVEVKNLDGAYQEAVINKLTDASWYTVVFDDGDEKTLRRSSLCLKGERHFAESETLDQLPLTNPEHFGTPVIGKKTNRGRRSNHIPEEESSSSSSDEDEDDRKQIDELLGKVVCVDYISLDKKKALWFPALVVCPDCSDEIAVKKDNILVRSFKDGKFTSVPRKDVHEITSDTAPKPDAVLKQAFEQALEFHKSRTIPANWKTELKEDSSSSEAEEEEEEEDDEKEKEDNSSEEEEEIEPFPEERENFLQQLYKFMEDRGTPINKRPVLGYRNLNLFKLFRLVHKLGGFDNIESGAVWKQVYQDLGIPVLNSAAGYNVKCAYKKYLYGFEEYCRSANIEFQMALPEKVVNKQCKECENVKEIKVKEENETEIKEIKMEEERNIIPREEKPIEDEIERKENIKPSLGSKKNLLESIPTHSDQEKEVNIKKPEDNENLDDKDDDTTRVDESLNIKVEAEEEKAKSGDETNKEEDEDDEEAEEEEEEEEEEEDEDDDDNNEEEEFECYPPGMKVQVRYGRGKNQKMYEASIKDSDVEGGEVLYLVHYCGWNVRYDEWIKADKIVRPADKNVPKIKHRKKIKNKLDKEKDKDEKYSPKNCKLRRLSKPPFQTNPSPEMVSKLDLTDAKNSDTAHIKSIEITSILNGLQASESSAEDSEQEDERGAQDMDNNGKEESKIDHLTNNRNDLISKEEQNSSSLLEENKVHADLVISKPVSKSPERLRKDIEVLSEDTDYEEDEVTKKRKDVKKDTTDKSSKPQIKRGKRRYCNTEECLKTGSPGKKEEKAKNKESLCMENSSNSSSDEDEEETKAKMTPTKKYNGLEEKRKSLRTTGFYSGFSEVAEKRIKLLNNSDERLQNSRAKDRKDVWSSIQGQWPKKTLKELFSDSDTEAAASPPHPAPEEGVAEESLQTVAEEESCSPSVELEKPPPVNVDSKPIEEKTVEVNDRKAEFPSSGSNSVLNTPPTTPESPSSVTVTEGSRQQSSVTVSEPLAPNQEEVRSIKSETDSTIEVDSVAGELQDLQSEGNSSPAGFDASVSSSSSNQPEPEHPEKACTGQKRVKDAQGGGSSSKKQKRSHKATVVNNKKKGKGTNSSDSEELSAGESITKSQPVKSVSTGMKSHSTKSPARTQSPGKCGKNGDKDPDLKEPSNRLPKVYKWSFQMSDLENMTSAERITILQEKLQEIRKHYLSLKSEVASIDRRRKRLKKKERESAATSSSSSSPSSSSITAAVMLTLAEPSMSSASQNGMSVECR
Description: His-ARID4B was pre-incubated with RWR-18 as indicated followed by histone peptide binding assays.
Histone peptide binding assays were used to determine that ARID4B binds to which methylated lysine. Full-length His-ARID4B and deletion mutants expressed in Sf9 were purified by Ni-NTA affinity resin (FIG. 20A). To determine which methylated lysine ARID4B binds, full-length His-ARID4B was incubated with biotinylated histone H3 peptides tri-methylated at the K4, K9, K27, K36 or K79. The corresponding unmethylated H3 peptides were used as controls ([…]). […] Next, the ARID4B deletion mutants were used to determine domain(s) of ARID4B responsible for binding to H3K4me3. Deletion of Tudor and chromo domains impaired binding to H3K4me3 (FIG. 20C, compare lanes 3, 4, and 7).
Since RWR-18 targets the chromodomain of ARID4B, which is important for binding to H3K4me3 (FIG. 20), it was tested whether RWR-18 interferes with binding of H3K4me3 using histone peptide binding assays as described above.

[2] = biological target: T2, ARID4B (Homo sapiens, UniProt Q4LE39); test: Cellular thermal shift assay (CETSA), endogenous ARID4B in MCF7 cells; assay type: cell-based; conditions: 10 μM, 2 h, 49-52° C. without compound
T2 construct: endogenous in cells; host or cells: MCF7
T2 sequence (Q4LE39 1-1312): T1 sequence (Q4LE39 1-1312)
Description: (B-C) show cells expressing HA-ARID4B (C) or HA-ARID4BIC (D) treated or not with ARD150 (10 μM) for 2 h were used for CESTA. […] (D-E) show cells expressing HA-ARID4B (D) or Flag-ARID4A (E) treated or not with RWR-18 (10 μM) for 2 h were used for CESTA. […] Data are means±SEM from three experiments. *P<0.05, **P<0.01, ns, not significant.
Using CETSA (cellular thermal shift assay) to examine whether ARD150 or RWR-18 binds to ARID4B, MCF7 cells treated or not with ARD150 or RWR-18 for 2 h were collected, followed by heating at 46, 49, 52, 55, and 58° C. to denature and precipitate ARID4B protein, cell lysis, removal of cell debris and aggregates by centrifugation, and finally detection of remaining thermostable ARID4B protein by western blot. The ARID4B aggregation temperatures without ARD150 were determined to be 49-52° C., but shifted to 52-55° C. after treatment with ARD150 and even more so with RWR-18 (FIG. 15A-D). To determine whether ARD150 and RWR-18 targets the chromodomain of ARID4B, CESTA was performed using chromodomain deletion mutant (ARID4BAC). HEK-293T cells expressing HA-ARID4B or HA-ARID4BAC were treated or not with ARD150 (10 μM) for 2 h and processed for CESTA.

binding of ARID4B to H3K4me3 [1] | Structure (SMILES) | ARID4B aggregation temperatures [2]
inhibited | O=C(COc1ccc(OCc2ccccc2)cc1)NCCCN1CCOCC1 [RWR-18] | –
– | COc1ccc(C(=O)NCCCN2CCOCC2)cc1OC [ARD150] | 52-55 °C
